Data as given in US9717775B2 (priority 2006, dated 2017).

Legend:
α9α10 nAChR = α9α10 nAChR (Rattus norvegicus, UniProt P43144+Q9JLB5); format: cell-based
α6/α3β2β3 nAChR = format: cell-based, rat
α6/α3β4 nAChR = format: cell-based, rat

α9α10 nAChR, sequence (P43144 26-479 limits assumed): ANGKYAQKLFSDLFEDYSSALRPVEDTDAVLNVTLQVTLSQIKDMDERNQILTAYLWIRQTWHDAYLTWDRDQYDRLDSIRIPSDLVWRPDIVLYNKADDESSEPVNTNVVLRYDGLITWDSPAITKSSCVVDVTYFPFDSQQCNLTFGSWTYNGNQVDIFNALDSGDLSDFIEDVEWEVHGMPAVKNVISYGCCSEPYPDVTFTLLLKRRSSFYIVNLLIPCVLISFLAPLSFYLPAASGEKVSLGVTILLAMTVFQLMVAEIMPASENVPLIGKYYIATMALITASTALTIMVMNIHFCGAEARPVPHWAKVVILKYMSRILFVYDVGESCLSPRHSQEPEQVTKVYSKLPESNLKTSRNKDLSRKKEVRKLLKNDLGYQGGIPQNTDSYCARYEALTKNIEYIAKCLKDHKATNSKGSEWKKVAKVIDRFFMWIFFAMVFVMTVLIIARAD
α9α10 nAChR, sequence (Q9JLB5 25-447 limits assumed): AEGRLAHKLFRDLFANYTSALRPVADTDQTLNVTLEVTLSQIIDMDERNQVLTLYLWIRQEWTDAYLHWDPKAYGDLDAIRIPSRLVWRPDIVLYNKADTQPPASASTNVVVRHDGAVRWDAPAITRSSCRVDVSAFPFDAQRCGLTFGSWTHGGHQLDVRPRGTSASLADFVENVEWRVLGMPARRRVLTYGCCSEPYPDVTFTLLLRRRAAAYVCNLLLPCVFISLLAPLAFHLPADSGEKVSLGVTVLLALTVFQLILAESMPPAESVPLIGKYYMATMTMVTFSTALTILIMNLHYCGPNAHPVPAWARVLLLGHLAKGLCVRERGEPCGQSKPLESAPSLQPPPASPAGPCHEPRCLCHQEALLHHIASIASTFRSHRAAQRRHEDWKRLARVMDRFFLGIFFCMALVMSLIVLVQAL

With α-conotoxin Vc1.1 [reference compound] the Hill slope (α9α10 nAChR) was 0.702±0.11, the IC50 (α9α10 nAChR) was 22.9 nM and the IC50 (α6/α3β2β3 nAChR) was 144 nM. The IC50 (α6/α3β4 nAChR) was 982 nM.
